Columns and labels:
[1] = per 100 g of water; cited from earlier work
[2] = Stability test 1 (storage test), effective chlorine retention rate
[3] = Stability test 2 (long-term storage test); assay type: physicochemical; conditions: in pasty detergent composition
Method: In a stainless steel beaker were charged 5 g of distilled water and 3 g of potassium carbonate, and the potassium carbonate was dissolved. […] . The pasty detergent composition heated to 60° C. was accurately weighed within a range of from 2.5 to 3.5 g, a mass thereof was recorded up to 3 decimal places, and added so as to be superimposed on the solid bleaching agent-containing material or sodium dichloroisocyanurate, to thereby prepare detergent compositions containing the solid bleaching agent-containing material or the solid bleaching agent. […] One month later, the entire amount of the detergent composition containing the solid bleaching agent-containing material or the solid bleaching agent in the cup was dissolved in about 100 ml of distilled water, and the effective chlorine retention rate was evaluated from the effective chlorine content in the same manner as in the case of the stability test 1.
. […] The case where the effective chlorine retention rate was less than 5% was evaluated as failed which is denoted by B, because an effect of improving stability was hardly recognized. The case where the effective chlorine retention rate was 5% or more was evaluated as pass which is denoted by A, because an effect of improving stability was recognized. […]

[4] = Stability test 3 (abrasion test); assay type: physicochemical; conditions: uncoated; storage 40° C., 75% RH, 3 months
Method: In order to evaluate a stability in the case where a physical impact was applied to the solid bleaching agent-containing materials having a coating layer prepared in Examples 1, 25, 28, 31, 35, 36, 37, 38, and 39, an abrasion test was carried out by using a tablet abrasion tester (manufactured by Toyama Sangyo Co., Ltd.). This tablet abrasion tester is composed of a plastic drum container having an inner diameter of about 286 mm and a depth of about 38 mm, and an electric part rotating the drum container in a vertical direction. Inside the drum container, a partition plate is provided so that a test sample in the container is lifted up to about 157 mm in height and falls each time when the drum container makes one rotation. Such a tablet abrasion tester is readily available. […]
The case where the effective chlorine retention rate was less than 5% was evaluated as failed which is denoted by B because an effect of improving stability was hardly recognized. The case where the effective chlorine retention rate was 5% or more and less than 10% was evaluated as pass which is denoted by A, because an effect of improving stability was recognized. The case where the effective chlorine retention rate was 10% or more was evaluated as particularly excellent among passes, which is denoted by S. The results were as shown in Table 27.

[5] = Stability test 1 (storage test), effective oxygen retention rate; conditions: uncoated solid bleaching agent (before coating)
[6] = uncoated solid bleaching agent (before coating)

Stability test 1: before coating, effective oxygen retention rate (%) [5] | SMILES | solubility with respect to water of 100 g [1] | Stability test 1: before coating, effective chlorine retention rate (%) [2, 6] | Stability test 1: before coating, effective chlorine retention rate (%) ([2]; unprocessed solid bleaching agent mixed with detergent components and 3 ml tap water at 60° C., 18 hours at room temperature) | Stability test 2: effective chlorine retention rate ([3]; 1 month, 40° C., 75% RH) | Stability test 2: before coating, effective chlorine retention rate (%) ([3]; uncoated, after 1 month) | Stability test 3: before coating, effective chlorine retention rate (%) [4]
– | O=c1n(Cl)c(=O)n(Cl)c(=O)n1Cl [trichloroisocyanuric acid, Trichloroisocyanuric acid] | 1.2 g | 30% | – | – | – | –
– | O=c1nc([O-])n(Cl)c(=O)n1Cl.[Na+] [Sodium dichloroisocyanurate] | – | 12% | 12% | 0% | 0% | 0%
25% | O=C([O-])[O-].O=C([O-])[O-].OO.OO.OO.[Na+].[Na+].[Na+].[Na+] [Sodium percarbonate] | – | – | – | – | – | –

Source: patent US11078450B2, “Material containing solid bleaching agent, and detergent composition” (SHIKOKU CHEMICALS CORPORATION, priority 2016, dated 2021)
